Here are results for 2 sequences from patent publication US10336808B2, “MHC peptide complexes and uses thereof in infectious diseases” (priority 2007, dated 2019).

What all share (assay type): cell-based, human
The test system of test [1] is T2 cells loaded with peptide. The experiment in a line: 51-Cr release assay of expanded T cell clones. As for the experimental part: The ten expanded T cell clones isolated by Flow sorting as shown in example 39 were tested for their specificity by analysis in a standard 51-Cr release assay. […] One of these BclX(L)173-182 specific CD8 T-cell clones [Clone 9] were expanded for further analyses.

The test system of test [2] is T2 cells pulsed with peptide. The experiment in a line: 51Cr-release assays with Bcl-X(L)173-182 specific clone 9. An excerpt: The Bcl-X(L)173-182 specific clone 9 was expanded for additional 2 weeks before the cytotoxic potential was examined further in 51Cr-release assays.
The subject of test [3] is Bcl-X(L)-specific, CD8 positive T cells in PBL. The experiment in a line: ELISPOT ex vivo with BclX(L) peptide. Particulars: PBL from a breast cancer patient, with vs without peptide, FIG. 15. As for the experimental part:
In example 22 the best binding BclX(L) 10-mer peptide for HLA-A*0201 was identified to be […] (SEQ ID NO.: 46196). This peptide has then been tested in ELISPOT to see if it were able to detect the presence Bcl-X(L)-specific, CD8 positive T cells in PBL (Peripheral Blood Lymphocytes) from a breast cancer patient. PBL from a breast cancer patient was analyzed by ELISPOT ex vivo either with or without the Bcl-X(L)173-182 peptide ([…] (SEQ ID NO.: 46196)), […] in doublets. The number of spots was counted using the Immunospot Series 2.0 Analyzer (CTL Analysers).

Where [4] appears, read: CD8 T-cell clones 8, 9, 10, 11 and 12, FIG. 17.

For “GLQHWVPEL [BA4697-105, irrelevant peptide, reference compound]”, in test [1] (setting [4]), the “lysis of peptide pulsed T2 cells” value is reported as “without killing”.

On to YLNDHLEPWI, for which the “cell lysis of T2 cells pulsed with different concentrations of peptide” value in test [2] (clone 9, E:T ratio 1:1, FIG. 18) is recorded as “significant even at low concentrations”. In addition, the “cell lysis of peptide pulsed T2 cells” value in test [2] (clone 9, three E:T ratios, vs irrelevant peptide, FIG. 18) is recorded as “necessary to get killing of the target cell”. For the same sequence, the “ELISPOT detection of Bcl-X(L)-specific CD8 positive T cells (number of spots)” value in test [3] was “clearly shows the presence of BclX(L) specific T-cells”. Also, the “lysis of peptide pulsed T2 cells” value in test [1] (setting [4]) is given as “effectively lysed”; in test [1] (expanded clones 7, 13, 15, 17 and 18) it was “did not show specific lysis”.
